Our source for the IC50 values is patent publication US7259183B2, “Indole, indazole and indoline derivatives as CETP inhibitors” (Hoffmann-La Roche Inc., priority 2004, dated 2007).

The structures appear in SMILES notation.

The assay addresses T1, CETP (Homo sapiens, UniProt P11597).
T1 sequence (P11597 18-493): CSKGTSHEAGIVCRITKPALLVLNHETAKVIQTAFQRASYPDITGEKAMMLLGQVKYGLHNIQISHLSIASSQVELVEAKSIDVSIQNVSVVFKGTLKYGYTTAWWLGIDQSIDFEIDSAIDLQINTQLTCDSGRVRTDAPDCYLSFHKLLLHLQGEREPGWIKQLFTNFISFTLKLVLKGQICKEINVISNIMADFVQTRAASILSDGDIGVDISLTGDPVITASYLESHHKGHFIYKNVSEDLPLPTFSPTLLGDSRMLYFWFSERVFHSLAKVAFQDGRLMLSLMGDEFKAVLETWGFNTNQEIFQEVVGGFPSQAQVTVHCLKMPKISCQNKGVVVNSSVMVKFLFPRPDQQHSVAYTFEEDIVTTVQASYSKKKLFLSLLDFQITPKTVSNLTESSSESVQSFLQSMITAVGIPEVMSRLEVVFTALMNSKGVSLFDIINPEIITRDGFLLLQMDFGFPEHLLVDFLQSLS
Description: CETP inhibition, buffer assay system (SPA, radiolabeled cholesteryl ester transfer from HDL to LDL). Format: biochemical. As to conditions: partially purified CETP, selected compounds, read-out: 1C50. As for the experimental part: Activity of CETP inhibitors was determined using a buffer assay system. Partially purified CETP transferred radiolabeled cholesteryl ester from HDL donor particles to biotin-labeled LDL acceptor particles. The reaction was stopped by addition of streptavidin-coupled scintillation proximity assay (SPA) beads. These beads captured the biotinylated acceptor particles and transferred radioactivity was measured. The assay system was purchased and performed according to manufacturer's recommendations (Amersham Biosciences). Inhibitory activity of compounds was determined as percentage of positive control activity containing CETP together with donor and acceptor particles. Serial dilution of compounds was performed in order to determine the IC50 values.

With `CC(C)CCN(Cc1ccc(C(C)(C)C)cc1)C(=O)c1cccc2cc[nH]c12` [Compound 1, 1H-Indole-7-carboxylic acid (4-tert-butyl-benzyl)-(3-methyl-butyl)-amide], the IC50 was determined as 539 nM. As for `CC(C)(C)c1ccc(CN(CCc2ccc(F)cc2)C(=O)c2cccc3c2NCC3)cc1` [Compound 76, 2,3-Dihydro-1H-indole-7-carboxylic acid (4-tert-butyl-benzyl)-[2-(4-fluoro-phenyl)-ethyl]-amide], the figure is 58 nM; as for `CC(C)(C)c1ccc(CN(CCOc2ccc(F)cc2)C(=O)c2cccc3cc[nH]c23)cc1` [Compound 90, 1H-Indole-7-carboxylic acid (4-tert-butyl-benzyl)-[2-(4-fluoro-phenoxy)-ethyl]-amide], 202 nM.
